Patent publication US20250098683A1 (priority 2018, published 2025)

Columns and labels:
bacteria [1] = test: Seed wash liquid streaked on LB media plates, inspected for bacterial growth; type: cell-based; details: treated five minutes, 37 C overnight
Description: (§1) Carrot, Swiss chard, and spinach seeds (1 kg, 5 kg, and 5 kg respectively) were placed into separate Petri dishes. From each of these seeds, 9 samples were taken, each sample weighing 50 grams. […] The liquid of carrot and Swiss chard treatments were streaked on LB media plates, and kept in a 37 degrees Celsius incubator overnight, and inspected for bacterial growth on the following day. The treated seed were dried in 40 C oven for three days, and some seeds were placed on LB or PDA plates.

bacteria [2] = test: Treated, dried seeds placed on LB or PDA plates; type: cell-based
Description: as §1

[Na+].[O-]Cl [1.2% bleach, Sodium hypochlorite]
bacteria in wash liquid after Swiss chard seeds were washed (bacteria [1]; Swiss chard seeds): some bacteria
bacteria in wash liquid after carrot seeds were washed (bacteria [1]; carrot seeds): some bacteria
Swiss chard seeds from which bacteria were found (bacteria [2]; Swiss chard seeds on LB plates): about 50%
carrot seeds from which bacteria were found (bacteria [2]; carrot seeds, three days after placing on LB plates): about 50%
microbes found from spinach seed (bacteria [2]; spinach seeds on plates): both fungal and bacterial microbes were found
